ChEMBL document CHEMBL5303573, “Mapping human microbiome drug metabolism by gut bacteria and their genes” (Nature, 2019)

Tests used:
Format in all cases: ADME
Set-up in all cases: dose 2 uM
Details in all cases: 2 µM
[1] = target: T1, Lipolytic enzyme, G-D-S-L family (Bacteroides thetaiotaomicron, UniProt Q8A0E6); experiment: (§1) The drug is tested on Bacteroides thetaiotaomicron strain: VPI-5482 for biotransformation. The drug concentrations were measured before and after a 12-h incubation by liquid-chromatography-coupled mass spectrometry (LC–MS)
T1 sequence (Q8A0E6 whole entry): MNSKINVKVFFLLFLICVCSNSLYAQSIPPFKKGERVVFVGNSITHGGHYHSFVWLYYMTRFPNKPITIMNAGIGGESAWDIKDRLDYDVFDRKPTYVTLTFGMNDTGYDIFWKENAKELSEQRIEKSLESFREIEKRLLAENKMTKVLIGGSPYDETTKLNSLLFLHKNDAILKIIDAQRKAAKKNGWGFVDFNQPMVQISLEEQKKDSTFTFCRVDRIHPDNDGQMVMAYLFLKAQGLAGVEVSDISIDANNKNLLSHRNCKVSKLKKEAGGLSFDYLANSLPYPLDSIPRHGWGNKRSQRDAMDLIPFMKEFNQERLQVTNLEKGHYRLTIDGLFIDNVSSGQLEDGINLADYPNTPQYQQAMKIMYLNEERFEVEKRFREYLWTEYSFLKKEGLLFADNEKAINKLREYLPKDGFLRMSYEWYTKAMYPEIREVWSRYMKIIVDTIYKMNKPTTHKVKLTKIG

Regulatory protein = target: T2, Regulatory protein (Bacteroides thetaiotaomicron, UniProt Q8A576); experiment: as §1
T2 sequence (Q8A576 whole entry): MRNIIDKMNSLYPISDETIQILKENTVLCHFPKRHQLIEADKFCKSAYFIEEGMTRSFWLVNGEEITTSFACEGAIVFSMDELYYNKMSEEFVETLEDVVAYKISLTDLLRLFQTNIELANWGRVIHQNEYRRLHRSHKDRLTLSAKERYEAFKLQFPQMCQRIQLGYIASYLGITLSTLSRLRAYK

[2] = target: T3, NADH dehydrogenase/NAD(P)H nitroreductase (Bacteroides thetaiotaomicron, UniProt Q8A8L9); experiment: as §1
T3 sequence (Q8A8L9 whole entry): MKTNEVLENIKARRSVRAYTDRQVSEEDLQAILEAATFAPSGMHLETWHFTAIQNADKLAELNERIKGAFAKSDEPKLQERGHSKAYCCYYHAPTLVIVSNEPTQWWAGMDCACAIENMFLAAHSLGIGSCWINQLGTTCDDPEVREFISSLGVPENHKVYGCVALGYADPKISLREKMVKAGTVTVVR

Lipoprotein = target: T4, Lipoprotein (Bacteroides thetaiotaomicron, UniProt Q8A343); experiment: as §1
T4 sequence (Q8A343 whole entry): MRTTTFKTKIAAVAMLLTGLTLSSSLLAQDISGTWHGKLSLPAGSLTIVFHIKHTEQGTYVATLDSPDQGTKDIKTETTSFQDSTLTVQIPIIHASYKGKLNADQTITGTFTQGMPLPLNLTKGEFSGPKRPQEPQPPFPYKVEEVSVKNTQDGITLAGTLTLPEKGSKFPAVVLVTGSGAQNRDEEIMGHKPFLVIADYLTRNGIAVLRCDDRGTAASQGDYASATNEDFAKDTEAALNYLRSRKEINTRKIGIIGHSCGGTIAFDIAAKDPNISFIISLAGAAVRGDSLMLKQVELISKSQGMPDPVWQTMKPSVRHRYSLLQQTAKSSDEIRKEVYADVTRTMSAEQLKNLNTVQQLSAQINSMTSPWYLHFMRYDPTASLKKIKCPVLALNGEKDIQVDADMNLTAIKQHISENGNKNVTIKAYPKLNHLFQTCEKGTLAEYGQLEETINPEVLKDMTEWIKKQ

Acylhydrolase = target: T5, Acylhydrolase (Bacteroides thetaiotaomicron, UniProt Q8AA96); experiment: as §1
T5 sequence (Q8AA96 whole entry): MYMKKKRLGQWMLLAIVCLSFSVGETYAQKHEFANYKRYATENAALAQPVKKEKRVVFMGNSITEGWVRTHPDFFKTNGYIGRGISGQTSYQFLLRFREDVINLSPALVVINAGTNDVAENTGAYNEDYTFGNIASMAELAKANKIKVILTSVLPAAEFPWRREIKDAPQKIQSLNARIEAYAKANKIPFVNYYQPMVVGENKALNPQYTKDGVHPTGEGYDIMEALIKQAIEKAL

[3] = target: T6, Acetyl esterase (Acetylxylosidase) (Bacteroides thetaiotaomicron, UniProt Q8ABF8); experiment: as §1
T6 sequence (Q8ABF8 whole entry): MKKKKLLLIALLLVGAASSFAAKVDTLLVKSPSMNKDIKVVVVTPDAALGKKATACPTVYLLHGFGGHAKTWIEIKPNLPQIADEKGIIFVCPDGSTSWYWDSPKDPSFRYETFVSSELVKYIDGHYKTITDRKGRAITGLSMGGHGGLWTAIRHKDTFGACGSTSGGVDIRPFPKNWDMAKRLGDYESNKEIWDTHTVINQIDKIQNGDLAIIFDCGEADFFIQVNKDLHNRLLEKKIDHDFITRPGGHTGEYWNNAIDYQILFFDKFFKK

[4] = target: T7, Lipolytic enzyme, G-D-S-L family (Bacteroides thetaiotaomicron, UniProt Q8A0C5); experiment: as §1
T7 sequence (Q8A0C5 whole entry): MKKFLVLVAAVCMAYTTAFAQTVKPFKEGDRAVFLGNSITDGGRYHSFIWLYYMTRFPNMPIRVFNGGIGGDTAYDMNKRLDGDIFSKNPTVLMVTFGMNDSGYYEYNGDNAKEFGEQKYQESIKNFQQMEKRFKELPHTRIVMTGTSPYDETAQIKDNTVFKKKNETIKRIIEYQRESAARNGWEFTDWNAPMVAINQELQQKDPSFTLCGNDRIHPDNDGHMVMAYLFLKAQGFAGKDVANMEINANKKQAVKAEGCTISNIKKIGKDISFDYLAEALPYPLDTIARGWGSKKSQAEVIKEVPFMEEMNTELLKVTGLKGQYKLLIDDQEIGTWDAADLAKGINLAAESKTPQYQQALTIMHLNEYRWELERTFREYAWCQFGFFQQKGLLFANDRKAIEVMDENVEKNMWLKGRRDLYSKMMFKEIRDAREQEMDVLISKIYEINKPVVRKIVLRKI

Lipase = target: T8, Lipase (Bacteroides thetaiotaomicron, UniProt Q8A3J3); experiment: as §1
T8 sequence (Q8A3J3 whole entry): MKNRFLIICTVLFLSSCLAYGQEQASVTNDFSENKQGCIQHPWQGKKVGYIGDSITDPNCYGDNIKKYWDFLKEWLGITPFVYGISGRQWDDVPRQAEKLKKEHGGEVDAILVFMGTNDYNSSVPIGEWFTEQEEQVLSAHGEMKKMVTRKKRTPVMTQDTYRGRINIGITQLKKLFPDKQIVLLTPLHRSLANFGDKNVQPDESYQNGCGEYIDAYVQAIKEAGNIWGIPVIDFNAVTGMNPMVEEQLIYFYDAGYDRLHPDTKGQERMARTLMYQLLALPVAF

Row | SMILES | Bacterial Biotransformation [1] | Bacterial Biotransformation (Regulatory protein) | Bacterial Biotransformation [2] | Bacterial Biotransformation (Lipoprotein) | Bacterial Biotransformation (Acylhydrolase) | Bacterial Biotransformation [3] | Bacterial Biotransformation [4] | Bacterial Biotransformation (Lipase)
1 | CC(=O)OCC(=O)[C@@]1(OC(C)=O)[C@@H](C)C[C@H]2[C@@H]3C[C@H](F)C4=CC(=O)C=C[C@]4(C)[C@@]3(F)[C@@H](O)C[C@@]21C [DIFLORASONE DIACETATE] | Compound NOT metabolized | Compound NOT metabolized | Compound NOT metabolized | Compound NOT metabolized | Compound metabolized | Compound NOT metabolized | Compound metabolized | –
2 | COc1ccc([C@@H]2Sc3ccccc3N(CCN(C)C)C(=O)[C@@H]2OC(C)=O)cc1 [DILTIAZEM] | Compound NOT metabolized | Compound NOT metabolized | Compound NOT metabolized | Compound NOT metabolized | Compound NOT metabolized | Compound NOT metabolized | Compound metabolized | Compound NOT metabolized
3 | CC(=O)OCC(CCn1cnc2cnc(N)nc21)COC(C)=O [FAMCICLOVIR] | Compound NOT metabolized | Compound NOT metabolized | Compound NOT metabolized | Compound NOT metabolized | Compound metabolized | Compound metabolized | Compound metabolized | Compound NOT metabolized

Continued, values first:

Row | Bacterial Biotransformation [1] | Bacterial Biotransformation (Regulatory protein) | Bacterial Biotransformation [2] | Bacterial Biotransformation (Lipoprotein) | Bacterial Biotransformation (Acylhydrolase) | Bacterial Biotransformation [3] | Bacterial Biotransformation [4] | Bacterial Biotransformation (Lipase) | SMILES
4 | Compound NOT metabolized | Compound NOT metabolized | Compound NOT metabolized | Compound NOT metabolized | Compound NOT metabolized | Compound NOT metabolized | Compound NOT metabolized | Compound NOT metabolized | C#C[C@]1(O)CC[C@H]2[C@@H]3CCC4=CC(=O)CC[C@@H]4[C@H]3CC[C@@]21CC [LEVONORGESTREL]
5 | Compound NOT metabolized | Compound NOT metabolized | Compound NOT metabolized | Compound NOT metabolized | Compound NOT metabolized | Compound NOT metabolized | Compound NOT metabolized | Compound NOT metabolized | C#C[C@]1(OC(C)=O)CC[C@H]2[C@@H]3CCC4=CC(=O)CC[C@@H]4[C@H]3CC[C@@]21C [NORETHINDRONE ACETATE]
